Data: ChEMBL document CHEMBL4043152, “Design, synthesis, and cytotoxic activity of novel 7-substituted camptothecin derivatives incorporating piperazinyl-sulfonylamidine moieties” (Bioorg Med Chem Lett, 2017)

Legend:
Format in all cases: functional, cell-based
KB = assay: Cytotoxicity against human KB cells after 72 hrs by SRB assay
MDA-MB-231 = assay: Cytotoxicity against human MDA-MB-231 cells after 72 hrs by SRB assay; details: MDA-MB-231, 72 h
MCF7 = assay: Cytotoxicity against human MCF7 cells after 72 hrs by SRB assay; details: MCF7, 72 h
[1] = Cytotoxicity against human KBVIN cells after 72 hrs by SRB assay
A549 = assay: Cytotoxicity against human A549 cells after 72 hrs by SRB assay; details: A549, 72 h

Compound | IC50 (KB) [µM] | IC50 (MDA-MB-231) [µM] | IC50 (MCF7) [µM] | IC50 [1] [µM] | IC50 (A549) [µM]
CC[C@@]1(O)C(=O)OCc2c1cc1n(c2=O)Cc2c-1nc1ccccc1c2CN1CCN(/C(Cc2ccccc2)=N\S(=O)(=O)c2cccs2)CC1 | 0.59 | 3.99 | 1.25 | 1.27 | 0.65
CC[C@@]1(O)C(=O)OCc2c1cc1n(c2=O)Cc2c-1nc1ccccc1c2CN1CCN(/C(Cc2ccc(F)cc2)=N\S(=O)(=O)c2ccc(C)cc2)CC1 | 1.07 | 6.01 | 7.04 | 2.77 | 1.77
CC[C@@]1(O)C(=O)OCc2c1cc1n(c2=O)Cc2c-1nc1ccccc1c2CN1CCN(/C(Cc2ccc(F)cc2)=N\S(=O)(=O)c2ccc([N+](=O)[O-])cc2)CC1 | 4.43 | 3.54 | 2.18 | 0.85 | 0.63
CC[C@@]1(O)C(=O)OCc2c1cc1n(c2=O)Cc2c-1nc1ccccc1c2CN1CCN(/C(Cc2ccc(F)cc2)=N\S(=O)(=O)c2ccc3ccccc3c2)CC1 | 4.72 | 5.41 | 4.74 | 0.38 | 0.6
CC[C@@]1(O)C(=O)OCc2c1cc1n(c2=O)Cc2c-1nc1ccccc1c2CN1CCN(/C(Cc2ccc(OC)cc2)=N\S(=O)(=O)c2cccnc2)CC1 | 0.88 | 4.96 | 4.22 | 2.38 | 0.8
CC[C@@]1(O)C(=O)OCc2c1cc1n(c2=O)Cc2c-1nc1ccccc1c2CN1CCN(/C(Cc2ccccc2)=N\S(=O)(=O)c2ccc(Cl)cc2)CC1 | 0.74 | 5.01 | 3.19 | 1.55 | 0.64
CC[C@@]1(O)C(=O)OCc2c1cc1n(c2=O)Cc2c-1nc1ccccc1c2CN1CCN(/C(Cc2ccc(OC)cc2)=N\S(=O)(=O)c2ccc3ccccc3c2)CC1 | 0.84 | 9.36 | 6.56 | 3.66 | 0.74
CC[C@@]1(O)C(=O)OCc2c1cc1n(c2=O)Cc2c-1nc1ccccc1c2CN1CCN(/C(Cc2ccc(F)cc2)=N\S(=O)(=O)c2cccnc2)CC1 | 6.76 | 6.31 | 6.05 | 5.82 | 2.59
CC[C@@]1(O)C(=O)OCc2c1cc1n(c2=O)Cc2cc3c(CN(C)C)c(O)ccc3nc2-1 [TOPOTECAN] |  |  | 0.28 | 0.66 | 0.11
CC[C@@]1(O)C(=O)OCc2c1cc1n(c2=O)Cc2c-1nc1ccccc1c2CN1CCN(/C(Cc2ccc(F)cc2)=N\S(=O)(=O)c2ccc(F)cc2)CC1 | 10.1 | 10.2 | 8.85 | 1.81 | 4.31
CC[C@@]1(O)C(=O)OCc2c1cc1n(c2=O)Cc2c-1nc1ccccc1c2CN1CCN(/C(Cc2ccccc2)=N\S(=O)(=O)c2cccnc2)CC1 | 0.72 | 3.84 | 3.4 | 2.09 | 0.76
CC[C@@]1(O)C(=O)OCc2c1cc1n(c2=O)Cc2c-1nc1ccccc1c2CN1CCN(/C(Cc2ccccc2)=N\S(=O)(=O)c2ccc3ccccc3c2)CC1 | 2.11 | 11.3 | 9.37 | 0.89 | 3.15
CC[C@@]1(O)C(=O)OCc2c1cc1n(c2=O)Cc2c-1nc1ccccc1c2CN1CCN(/C(Cc2ccccc2)=N\S(C)(=O)=O)CC1 | 0.13 | 1.57 | 1.59 | 3.82 | 0.65
CC[C@@]1(O)C(=O)OCc2c1cc1n(c2=O)Cc2c-1nc1ccccc1c2CN1CCN(/C(Cc2ccc(OC)cc2)=N\S(=O)(=O)c2ccc([N+](=O)[O-])cc2)CC1 | 1.06 | 9.75 | 8.36 | 0.97 | 2.93
CC[C@@]1(O)C(=O)OCc2c1cc1n(c2=O)Cc2c-1nc1ccccc1c2CN1CCN(/C(Cc2ccc(F)cc2)=N\S(=O)(=O)CC)CC1 | 0.33 | 2.51 | 1.6 | 0.97 | 0.5
CC[C@@]1(O)C(=O)OCc2c1cc1n(c2=O)Cc2c-1nc1ccccc1c2CN1CCN(/C(Cc2ccccc2)=N\S(=O)(=O)CC)CC1 | 0.49 | 3.5 | 1.9 | 4.29 | 0.73
CC[C@@]1(O)C(=O)OCc2c1cc1n(c2=O)Cc2c-1nc1ccccc1c2CN1CCN(/C(Cc2ccccc2)=N\S(=O)(=O)c2ccccc2)CC1 | 0.63 | 4.41 | 2.25 | 1.77 | 0.65
CC[C@@]1(O)C(=O)OCc2c1cc1n(c2=O)Cc2c-1nc1ccccc1c2CN1CCN(/C(Cc2ccc(OC)cc2)=N\S(=O)(=O)CC)CC1 | 0.47 | 3.81 | 2.9 | 2.73 | 0.71
CC[C@@]1(O)C(=O)OCc2c1cc1n(c2=O)Cc2c-1nc1ccccc1c2CN1CCN(/C(Cc2ccc(OC)cc2)=N\S(=O)(=O)c2ccc(C)cc2)CC1 | 0.83 | 5.84 | 5.67 | 3.08 | 0.74
CCc1c2c(nc3ccc(OC(=O)N4CCC(N5CCCCC5)CC4)cc13)-c1cc3c(c(=O)n1C2)COC(=O)[C@]3(O)CC [IRINOTECAN] |  |  | 11.3 | > 20 | 8.31
